Laboratory results: US20230123334A1, “AMINO LIPID COMPOUND, PREPARATION METHOD THEREFOR, AND APPLICATION THEREOF” (SHENZHEN SHENXIN BIOTECHNOLOGY CO., LTD., priority 2020, published 2023)

Tests used:
HEK293 cells [1] = experiment: Preliminary screening as DNA vectors, GFP transfection of HEK293 cells; format: cell-based; settings: HEK293 cells; lipid/DOPE liposome with 75 ng plasmid DNA (psin-EGFP-IRES-Puro); number of cells expressing GFP divided by total number of nuclei (Hoechst)
Outline: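 HEK293 cells in DMEM/10% FBS transfected with 75 ng EGFP plasmid per well complexed with amino lipid/DOPE liposomes in pH 5.6 sodium acetate. Hoechst nuclear stain added 20-24 h post-transfection, then cells cultured another 20-24 h. Confocal imaging gives GFP-positive cells as % of total nuclei.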

HEK293 cells [2] = experiment: Preliminary screening as mRNA vectors, EGFP mRNA transfection of HEK293 cells; format: cell-based; settings: HEK293 cells, 96-well plates, EGFP mRNA 50 ng per well; percentage of GFP fluorescent cells relative to total number of cells (Hoechst)
Outline: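 HEK293 cells in DMEM plus 10% FBS transfected in 96-well format with 50 ng EGFP mRNA per well; Lipofectamine2000 served as positive control. Read-out is the percentage of GFP-fluorescent cells among total cells, counted by Hoechst nuclear stain.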

Row | SMILES | Absolute DNA transfection efficiency in HEK293 cells (HEK293 cells [1]) [%] | Absolute mRNA transfection efficiency in HEK293 cells (HEK293 cells [2]) [%]
1 | CCCCCCCCCCCCCCCCNc1nc(NCCCCCCCCCCCC)nc(NCCN2CCOCC2)n1 [Compound N12N16D2] | 0.9 | 0.0
2 | CCCCCCCCCCCCCCSc1nc(NCC2CCN(C)CC2)nc(SCCCCCCCCCCC)n1 [Compound S11S14D10] | 58.1 | 38.5
3 | CCCCCCCCCCSc1nc(NCCCN(C)C)nc(SCCCCCCCCCC)n1 [Compound S10S10D6] | 23.6 | 59.1
4 | CCCCCCCCCCCCCCSc1nc(NCCN(C)C)nc(SCCCCCCCCCCC)n1 [Compound S11S14D1] | 2.0 | 1.9
5 | CCCCCCCCCCCCNc1nc(NCC2CCN(C)CC2)nc(N(CCCCCCCCCCCC)CCCCCCCCCCCC)n1 [N12^2N12D10] | 0.7 | 0.9
6 | CCCCCCCCCCCCNc1nc(NCCCCCCCCC)nc(NCCN(C)C)n1 [Compound N9N12D1] | 0.0 | 0.5
7 | CCCCCCCCCCCCCCCNc1nc(NCCCCCCCCCCC)nc(NCCCN2CCN(C)CC2)n1 [Compound N11N15D9] | 0.1 | 0.3
8 | CCCCCCCCCCCCNc1nc(NCCCCCCCCCCCC)nc(NCCCN2CCOCC2)n1 [Compound N12N12D8] | 0.0 | 0.3
9 | CCCCCCCCCCCCCCCCCCSc1nc(NCCCN(C)C)nc(SCCCCCCCC)n1 [Compound S8S18D6] | 8.2 | 19.1
10 | CCCCCCCCCCCCCCCNc1nc(NCCCCCCCCCCC)nc(NCCCN2CCOCC2)n1 [Compound N11N15D8] | 1.1 | 0.5
11 | CCCCCCCCCCCCCCSc1nc(NCCN2CCN(C)CC2)nc(SCCCCCCCCCCCC)n1 [Compound S12S14D5] | 0.2 | 3.6
12 | CCCCCCCCCCCCCCCCCCSc1nc(NCCN(C)C)nc(SCCCCCCCC)n1 [Compound S8S18D1] | 7.6 | 3.9
13 | CCCCCCCCCCCCCCCCCCNc1nc(NCCCCCCCCCCC)nc(NCCN2CCOCC2)n1 [Compound N11N18D2] | 0.3 | 0.8
14 | CCCCCCCCCCCCCCCNc1nc(NCCN(CC)CC)nc(N(CCCCCCCCCCCC)CCCCCCCCCCCC)n1 [N15^2N12D7] | 1.3 | 0.0
15 | CCCCCCCCCCCNc1nc(NCCCCCCC)nc(NCCN2CCCCC2)n1 [Compound N7N11D4] | 1.4 | 0.1
16 | CCCCCCCCCCCCCCCCNc1nc(NCCCCCCC)nc(NCCN2CCOCC2)n1 [Compound N7N16D2] | 0.0 | 0.1
17 | CCCCCCCCCCCCCCCCCCNc1nc(NCCCCCCCCCCCCC)nc(NCCN2CCOCC2)n1 [Compound N13N18D2] | 0.2 | 0.0
18 | CCCCCCCCCCCCCCCCCCSc1nc(NCCN(CC)CC)nc(SCCCCCCCCCC)n1 [Compound S10S18D7] | 9.2 | 0.3
19 | CCCCCCCCCCCCCCCNc1nc(NCCCCCC)nc(NCCCN(C)C)n1 [Compound N6N15D6] | 0.3 | 0.3
20 | CCCCCCCCCCCCCCCCSc1nc(NCCCN2CCOCC2)nc(SCCCCCCCC)n1 [Compound S8S16D8] | 28.6 | 4.4
21 | CCCCCCCCCCSc1nc(NCCN(C)C)nc(SCCCCCCCCC)n1 [Compound S9S10D1] | 8.6 | 5.0
22 | CCCCCCCCCCCCCCCCNc1nc(NCCCCCCCCC)nc(NCCN2CCOCC2)n1 [Compound N9N16D2] | 0.0 | 0.7
23 | CCCCCCCCCCCNc1nc(NN)nc(NCCCN2CCN(C)CC2)n1 [Compound N6N11D9] | 0.0 | 0.0
24 | CCCCCCCCNc1nc(NCCCCCC)nc(NCCCN2CCOCC2)n1 [Compound N6N8D8] | 0.0 | 0.0

Row | SMILES | Absolute DNA transfection efficiency in HEK293 cells (HEK293 cells [1]) [%] | Absolute mRNA transfection efficiency in HEK293 cells (HEK293 cells [2]) [%]
25 | CCCCCCCCCCCNc1nc(NCCCCCCCCC)nc(NCCN2CCN(C)CC2)n1 [Compound N9N11D5] | 0.0 | 1.1
26 | CCCCCCCCCCCCN(CCCCCCCCCCCC)c1nc(NCCCCCCC)nc(NCCN2CCCCC2)n1 [N7^2N12D4] | 1.2 | 3.7
27 | CCCCCCCCCCCCCNc1nc(NCCCCCCCCCCCC)nc(NCCN2CCCCC2)n1 [Compound N12N13D4] | 0.0 | 0.0
28 | CCCCCCCCCCCCCCCCCCNc1nc(NCCCCCCCCCCCCC)nc(NCCN2CCN(C)CC2)n1 [Compound N13N18D5] | 0.2 | 0.7
29 | CCCCCCCCCCCCCNc1nc(NCCCCCCCCCCCC)nc(NCCN2CCCC2)n1 [Compound N12N13D3] | 1.7 | 3.1
30 | CCCCCCCCCCCCCCCCNc1nc(NCCCCCCCCCCCC)nc(NCCCN(C)C)n1 [Compound N12N16D6] | 1.9 | 1.9
31 | CCCCCCCCNc1nc(NCCCCCC)nc(NCCN(CC)CC)n1 [Compound N6N8D7] | 0.0 | 0.1
32 | CCCCCCCCCCCNc1nc(NCCCCCCCCCCC)nc(NCCN(CC)CC)n1 [Compound N11N11D7] | 0.6 | 5.5
33 | CCCCCCCCCCCCCCCCNc1nc(NCCCCCCCCCCCCCCC)nc(NCCCN2CCOCC2)n1 [Compound N15N16D8] | 0.0 | 0.0
34 | CCCCCCCCCCCCCNc1nc(NCCCCCCCCCCCC)nc(NCCN(CC)CC)n1 [Compound N12N13D7] | 0.2 | 0.3
35 | CCCCCCCCCCCCN(CCCCCCCCCCCC)c1nc(NCCCCCCC)nc(NCCCN2CCN(C)CC2)n1 [N7^2N12D9] | 1.9 | 5.4
36 | CCCCCCCCCCCCSc1nc(NCCN2CCN(C)CC2)nc(SCCCCCCCCCCCC)n1 [Compound S12S12D5] | 0.4 | 3.1
37 | CCCCCCCCCCCCCCCSc1nc(NCCN(C)C)nc(SCCCCCCCCCCCCCC)n1 [Compound S14S15D1] | 0.1 | 0.0
38 | CCCCCCCCCCCCCCCSc1nc(NCCCN2CCOCC2)nc(SCCCCCCCCCCCCCC)n1 [Compound S14S15D8] | 0.0 | 0.0
39 | CCCCCCCCCCCCCCCCNc1nc(NCCCCCCCCC)nc(NCCCN2CCOCC2)n1 [Compound N9N16D8] | 1.8 | 0.0
40 | CCCCCCCCCCCCCCCCSc1nc(NCCN(C)C)nc(SCCCCCCCCCCCCCCCC)n1 [Compound S16S16D1] | 0.6 | 0.4
41 | CCCCCCCCCSc1nc(NCCN2CCN(C)CC2)nc(SCCCCCCCCC)n1 [Compound S9S9D5] | 12.5 | 37.1
42 | CCCCCCCCCNc1nc(NCCCCCCCCC)nc(NCC2CCN(C)CC2)n1 [Compound N9N9D10] | 0.0 | 0.8
43 | CCCCCCCCCCSc1nc(NCC2CCN(C)CC2)nc(SCCCCCCCCC)n1 [Compound S9S10D10] | 18.7 | 47.2
44 | CCCCCCCCCCCCCNc1nc(NCCCCCCCCCCC)nc(NCCCN(C)C)n1 [Compound N11N13D6] | 0.8 | 0.2
45 | CCCCCCCCCCCCCCCSc1nc(NCCN2CCN(C)CC2)nc(SCCCCCCCCCCCCCC)n1 [Compound S14S15D5] | 0.0 | 0.0
46 | CCCCCCCCCCCCCCCCCCNc1nc(NCCCCCCCCCCCCCCC)nc(NCCN2CCOCC2)n1 [Compound N15N18D2] | 0.0 | 0.0
47 | CCCCCCCCCCCCCCCCNc1nc(NCCCCCCCCCCC)nc(NCCCN2CCOCC2)n1 [Compound N11N16D8] | 0.0 | 0.4
48 | CCCCCCCCCCCSc1nc(NCCCN(C)C)nc(SCCCCCCCCCCC)n1 [Compound S11S11D6] | 10.9 | 25.4
